Test results: patent US11932654B2, “Nimbolide analogs as anti-cancer agents and preparation thereof” (priority 2018, dated 2024)
pIC50: −log10 of the molar value.

Legend:
Assay type in all cases: cell-based
[1] = system: A549 lung adenocarcinoma cell line; assay: In vitro anticancer activity, SRB assay, A549; conditions: Homo sapiens, 48 h, NA = Not Active
Experimental: (§1) Cell culture: Human lung adenocarcinoma cell line (A549 cell line), pancreatic cancer cell line (Panc-1, Pan-02), prostate cancer cell line (DU145, PC3), Brest cancer cell line (MCF-7) was grown in DIEM (Dulbecco's modifications of eagle's medium with L-glutamine & 4.5 g/L glucose) supplemented with fetal bovine serum in a humidified atmosphere of a 5% CO2 at 37° C.
(§2) In vitro anticancer activity: Cells were harvested from exponential phase cultures by trypsinization, counted and plated in 96-well plate. Optimal seeding densities for different cell lines in each plate were 5000 cells per well. After 24 h cells were treated with \ the newly synthesized compound at a dose range of 0.1-100 μm final concentration. Thereafter, cells were allowed to grow for 48 h before determination of cell survival by the SRB assay. Then the cells were fixed with 10% cold trichloroacetic acid for 1 h at 4° C. After two washes with deionized water, fixed cells were stained with 50 μL of SRB solution (1% in acetic acid) for 30 min and subsequently washed twice with 1% acetic acid to remove unbound stain. The plates were left to dry at room temperature and bound stain was solubilized with 100 μL of 10 mM buffered Tris base for reading the […] at 540 nm.

[2] = system: Panc-1 pancreatic cancer cell line; assay: In vitro anticancer activity, SRB assay, Panc-1; conditions: Homo sapiens, 48 h, NA = Not Active
Experimental: as §1, §2

caspase-8 = assay: Caspase assay activity, caspase-8, Panc-1 cells; conditions: fluorimetric assay, increasing concentrations
Experimental: (§3) Caspase assay activity: Caspase-3, caspase-8 and caspase-9 protease activities were determined using a commercial fluorescence assay kit according to the manufacturer's instructions, Briefly, pancreatic cancer cells were treated with different concentrations of IM-1372-Kn-13 for 24 h were re-suspended in 50 μL of chilled cell lysis buffer; cells were then incubated on ice for 10 min and centrifuged for 1 min in a micro-centrifuge (10,000 g). Then supernatants were transferred (cytosolic extract) to a fresh tube and protein concentration was assayed. Next, diluted 100 μg protein was added to 50 μL cell lysis buffer for each assay. Subsequently, 50 μL of 2× reaction buffer and 5 μL of the 4 mM Ac-DEVD AMC (caspase-3)/Ac-VETD-AMC (caspase-8)/[…] were added and incubated at 37° C. for 2 h (samples read at […] in a microtiter plate reader).

caspase-9 = assay: Caspase assay activity, caspase-9, Panc-1 cells; conditions: fluorimetric assay, increasing concentrations
Experimental: as §3

`COC(=O)C[C@H]1[C@]2(C)C3=C(C)[C@H](C4=CC5OC4C(C(=O)OC)=C5C(=O)OC)C[C@@H]3O[C@@H]2[C@@H]2OC(=O)[C@]3(C)C=CC(=O)[C@@]1(C)C23` (stereo partly shown) [A4] was tested, and the pIC50 [1] was 5.34, the pIC50 [2] was 5.04 and the “activity of caspase-8” value (caspase-8) was “increased significantly in a dose-dependent manner”. The “activity of caspase-9” value (caspase-9) was “increased significantly in a dose-dependent manner”.
